Assay type in all cases: cell-based, human
For test [1], the system named is HepG2 (Hepatocellular Carcinoma). The test can be described thus: Cell viability analysis, hepatic cancer HepG2. Particulars: Homo sapiens, HepG2, 72 h.
Another test deals with cancer cell lines. The test can be described thus: Cell viability analysis (WST-1) on cancer cell lines. The conditions noted are these: drug 10 μM, 72 hours, WST-1; Table 3. In general terms: Formazan colour is commonly taken as a measure of viable cells.
Test [2] concerns HeLa (Cervix Adenocarcinoma). Briefly: Cell viability analysis, cervical cancer HeLa. Particulars: Homo sapiens, HeLa, 72 h.
Test [3] deals with A375 (Amelanotic Melanoma). Briefly: Cell viability analysis, skin cancer A375. Particulars: Homo sapiens, A-375, 72 h.
For test [4], the system named is LoVo (Colorectal Adenocarcinoma). Briefly: Cell viability analysis, colon cancer LoVo. Particulars: Homo sapiens, LoVo, 72 h, read-out: cell viability (survival rate), LoVo, drug 10 μM, 72 hours, WST-1, OD450 nm.
Test [5] deals with PC3 (p53−) (Prostate Adenocarcinoma). The test can be described thus: Cell viability analysis, prostate cancer PC3. Particulars: Homo sapiens, 72 h.
Test [6] deals with MCF7 (Mammary Gland, Adenocarcinoma). Briefly: Cell viability analysis, breast cancer MCF7. The conditions noted are these: Homo sapiens, MCF7, 72 h.
In test [7] the test system is HI650 (Lung Adenocarcinoma). The test can be described thus: Cell viability analysis, lung cancer HI650. Particulars: Homo sapiens, NCI-H1650, 72 h.
Test [8] relates to TSGH-8301 (Urinary Bladder Carcinoma). The test can be described thus: Cell viability analysis, bladder cancer TSGH-8301. The conditions noted are these: Homo sapiens, 72 h.
Test [9] concerns MKN-45 (Gastric Adenocarcinoma). Briefly: Cell viability analysis, gastric cancer MKN-45. The conditions noted are these: Homo sapiens, MKN-45, 72 h.
Test [10] relates to HL-60 (Acute Promyelocytic Leukemia). The test can be described thus: Cell viability analysis, leukemia HL-60. Particulars: Homo sapiens, HL-60, 72 h.
Test [11] deals with A549 (Lung Adenocarcinoma). The test can be described thus: Cell viability analysis, lung cancer A549. Particulars: Homo sapiens, A549, 72 h.
Test [12] deals with AGS (Gastric Adenocarcinoma). Briefly: Cell viability analysis, gastric cancer AGS. Particulars: Homo sapiens, 72 h.
[13] abbreviates: read-out: cell viability (survival rate), HepG2, drug 10 μM, 72 hours, WST-1, OD450 nm.
Setting [14] is: read-out: cell viability (survival rate), HeLa, drug 10 μM, 72 hours, WST-1, OD450 nm.
[15] abbreviates: read-out: cell viability (survival rate), A375, drug 10 μM, 72 hours, WST-1, OD450 nm.
Setting [16] is: read-out: cell viability (survival rate), PC3, drug 10 μM, 72 hours, WST-1, OD450 nm.
The mark [17] stands for this setting: read-out: cell viability (survival rate), MCF7, drug 10 μM, 72 hours, WST-1, OD450 nm.
Setting [18] is: read-out: cell viability (survival rate), H1650, drug 10 μM, 72 hours, WST-1, OD450 nm.
Setting [19] is: read-out: cell viability (survival rate), TSGH, drug 10 μM, 72 hours, WST-1, OD450 nm.
[20] abbreviates: read-out: cell viability (survival rate), MKN-45, drug 10 μM, 72 hours, WST-1, OD450 nm.
Setting [21] is: read-out: cell viability (survival rate), HL-60, drug 10 μM, 72 hours, WST-1, OD450 nm.
[22] abbreviates: read-out: cell viability (survival rate), A549, drug 10 μM, 72 hours, WST-1, OD450 nm.
[23] abbreviates: read-out: cell viability (survival rate), AGS, drug 10 μM, 72 hours, WST-1, OD450 nm.
Setting [24] is: drug 10 μM, 72 hours, WST-1, OD450 nm, read-out: cell viability (survival rate), HepG2.
Where [25] appears, read: drug 10 μM, 72 hours, WST-1, OD450 nm, read-out: cell viability (survival rate), HeLa.
Setting [26] is: drug 10 μM, 72 hours, WST-1, OD450 nm, read-out: cell viability (survival rate), A375.
The mark [27] stands for this setting: drug 10 μM, 72 hours, WST-1, OD450 nm, read-out: cell viability (survival rate), PC3.
[28] abbreviates: drug 10 μM, 72 hours, WST-1, OD450 nm, read-out: cell viability (survival rate), MCF7.
[29] abbreviates: drug 10 μM, 72 hours, WST-1, OD450 nm, read-out: cell viability (survival rate), H1650.
Setting [30] is: drug 10 μM, 72 hours, WST-1, OD450 nm, read-out: cell viability (survival rate), TSGH.
[31] abbreviates: drug 10 μM, 72 hours, WST-1, OD450 nm, read-out: cell viability (survival rate), MKN-45.
The mark [32] stands for this setting: drug 10 μM, 72 hours, WST-1, OD450 nm, read-out: cell viability (survival rate), HL-60.
Setting [33] is: drug 10 μM, 72 hours, WST-1, OD450 nm, read-out: cell viability (survival rate), A549.
[34] abbreviates: drug 10 μM, 72 hours, WST-1, OD450 nm, read-out: cell viability (survival rate), AGS.

Consider nine molecules from US10105357B2, “Indication of antibiotic drugs for preparation of cancer inhibition pharmaceutical composition” (LAUNX BIOMEDICAL CO., LTD., priority 2014, dated 2018).

Counter-ions that a name gives are not always drawn. Like-named read-outs stand apart in the source and are kept apart here.

As for `CCOC(=O)n1ccn(C)c1=S` [Carbimazole], the viability (usually a read-out of living cells in per cent, often relative to untreated cells) at 10 µM in test [1] (setting [13]) was found to be 97.2%; in [2] (setting [14]) it was 90.3%; in [3] (setting [15]) it was 65.1%; in [4], 75%; in test [5] (setting [16]), 95.6%; in [6] (setting [17]), 102%. For the same molecule, the viability at 10 µM in test [7] (setting [18]) came to 80.9%; in test [8] (setting [19]), 117%; in [9] (setting [20]), 131%; in test [10] (setting [21]), 80.1%; in [11] (setting [22]) it was 73.9%; in test [12] (setting [23]), 114%. The “inhibition effect on different cancer cell lines” value in the test with cancer cell lines was “significant inhibition effect”.

Regarding `N[C@@H](C(=O)N[C@@H]1C(=O)N2C(C(=O)O)=C(Cl)CS[C@H]12)c1ccccc1` [Cefaclor (Ceclor), Cefaclor], the viability at 10 µM was 108% in [1] (setting [24]); 86.7% in test [2] (setting [25]); 67.5% in test [3] (setting [26]); 88.2% in test [4]; 70.1% in test [5] (setting [27]); 90.6% in [6] (setting [28]). The viability at 10 µM in test [7] (setting [29]) turned out to be 62.3%; in test [8] (setting [30]) it was 81.6%; in test [9] (setting [31]) it was 97%; in [10] (setting [32]) it was 112%; in test [11] (setting [33]), 61%; in test [12] (setting [34]), 41.9%. Besides, in the test on cancer cell lines, the “inhibition effect on different cancer cell lines” value is on record as “significant inhibition effect”.

On to `CO/N=C(\C(=O)N[C@@H]1C(=O)N2C(C(=O)OCOC(=O)C(C)(C)C)=C(/C=C\c3scnc3C)CS[C@H]12)c1csc(N)n1` [Cefditoren pivoxil], for which the viability at 10 µM in test [1] (setting [24]) is 96.9%; in test [2] (setting [25]) it was 58.7%; in test [3] (setting [26]), 69.1%; in test [4], 83.5%; in test [5] (setting [27]), 83.9%; in [6] (setting [28]), 38.4%. For the same molecule, the viability at 10 µM in test [7] (setting [29]) worked out at 80.7%; in test [8] (setting [30]), 94.8%; in [9] (setting [31]) it was 70.5%; in test [10] (setting [32]) it was 110%; in [11] (setting [33]), 45.7%; in [12] (setting [34]), 86.5%. The “inhibition effect on different cancer cell lines” value with cancer cell lines is recorded as “significant inhibition effect”.

Take `CO/N=C(\C(=O)N[C@@H]1C(=O)N2C(C(=O)O)=C(CSC(=O)c3ccco3)CS[C@H]12)c1csc(N)n1` [Ceftiofur hydrochloride]: the viability at 10 µM was 91.9% in test [1] (setting [13]); 92.2% in [2] (setting [14]); 92.8% in [3] (setting [15]); 85% in [4]; 73.1% in test [5] (setting [16]); 159% in [6] (setting [17]). Moreover, the viability at 10 µM was 44% in test [7] (setting [18]); 50.6% in test [8] (setting [19]); 85.5% in test [9] (setting [20]); 92.2% in test [10] (setting [21]); 61.6% in [11] (setting [22]); 69.4% in test [12] (setting [23]). Also, the “inhibition effect on different cancer cell lines” value with cancer cell lines was “significant inhibition effect”.

With `CC1=C(C(=O)O)N2C(=O)[C@@H](NC(=O)[C@H](N)c3ccccc3)[C@H]2SC1` [Cephalexin (Cefalexin), Cephalexin], the viability at 10 µM in test [1] (setting [13]) worked out at 109%; in test [2] (setting [14]) it was 76.2%; in test [3] (setting [15]) it was 92.7%; in [4], 85.9%; in [5] (setting [16]), 57.5%; in [6] (setting [17]), 96.1%. The viability at 10 µM in [7] (setting [18]) was 71.2%; in test [8] (setting [19]) it was 69.2%; in test [9] (setting [20]), 94.9%; in [10] (setting [21]), 95.2%; in [11] (setting [22]), 80.6%; in test [12] (setting [23]), 59.6%. Also, in the test with cancer cell lines, the “inhibition effect on different cancer cell lines” value is reported as “significant inhibition effect”.

Regarding `C[C@H](CCC(=O)O)[C@H]1CC[C@H]2[C@@H]3[C@H](O)C[C@@H]4C[C@H](O)CC[C@]4(C)[C@H]3CC[C@]12C` [Chenodeoxycholic acid], the viability at 10 µM in [1] (setting [24]) amounted to 94.8%; in [2] (setting [25]), 69.1%; in [3] (setting [26]), 64.2%; in test [4], 82.7%; in test [5] (setting [27]), 71.4%; in test [6] (setting [28]), 74.5%. The viability at 10 µM in test [7] (setting [29]) came to 68.1%; in test [8] (setting [30]), 88.8%; in [9] (setting [31]), 51.8%; in [10] (setting [32]), 118%; in test [11] (setting [33]), 96.3%; in [12] (setting [34]), 68.9%. In addition, the “inhibition effect on different cancer cell lines” value in the test with cancer cell lines was “significant inhibition effect”.

Consider `Oc1c(Cl)cc(Cl)c2cccnc12` [Chloroxine], for which the viability at 10 µM in test [1] (setting [13]) amounted to 93.9%; in test [2] (setting [14]), 71.7%; in test [3] (setting [15]) it was 72.5%; in test [4], 85.5%; in test [5] (setting [16]), 87.2%; in [6] (setting [17]) it was 68.7%. Further, the viability at 10 µM in [7] (setting [18]) was determined as 77.1%; in [8] (setting [19]), 62.7%; in test [9] (setting [20]) it was 52.7%; in [10] (setting [21]), 50.5%; in test [11] (setting [22]) it was 120%; in [12] (setting [23]), 31.1%. The “inhibition effect on different cancer cell lines” value with cancer cell lines was “significant inhibition effect”.

With `CCCNC(=O)NS(=O)(=O)c1ccc(Cl)cc1` [Chlorpropamide], the viability at 10 µM in [1] (setting [24]) amounted to 92.5%; in test [2] (setting [25]) it was 59.9%; in [3] (setting [26]), 62.1%; in test [4], 59.3%; in test [5] (setting [27]) it was 44.4%; in [6] (setting [28]) it was 32.5%. In addition, the viability at 10 µM in test [7] (setting [29]) was 55.8%; in [8] (setting [30]), 59.1%; in test [9] (setting [31]), 42.7%; in test [10] (setting [32]) it was 96.7%; in test [11] (setting [33]), 36.9%; in [12] (setting [34]) it was 51.2%. Moreover, the “inhibition effect on different cancer cell lines” value in the test on cancer cell lines is recorded as “significant inhibition effect”.

Regarding `Nc1ccn(C[C@@H](CO)OCP(=O)(O)O)c(=O)n1` [Cidofovir (Vistide), Cidofovir], the viability at 10 µM amounted to 97.2% in test [1] (setting [24]); 82.1% in test [2] (setting [25]); 82.6% in test [3] (setting [26]); 82.3% in [4]; 63.9% in test [5] (setting [27]); 78.3% in test [6] (setting [28]). Moreover, the viability at 10 µM is 53.3% in test [7] (setting [29]); 49.8% in test [8] (setting [30]); 56.9% in [9] (setting [31]); 112% in test [10] (setting [32]); 58.3% in test [11] (setting [33]); 39.6% in [12] (setting [34]). Moreover, in the test with cancer cell lines, the “inhibition effect on different cancer cell lines” value was “significant inhibition effect”.
